{"source": "patent US11628198B2", "about": "“Methods for prevention and treatment of acute renal injury” (Cornell University, priority 2008, dated 2023)", "assay_type_in_all_cases": "in vivo, rat", "key": {"[1]": {"system": "ARI caused by ischemia-reperfusion (I/R)", "assay": "I/R model: renal morphologic examination (H&E, PAS)", "details": "45 min ischemia and 24 h reperfusion", "procedure": "Sprague Dawley rats (250˜300 g) were assigned to four groups: (1) sham surgery group without I/R; (2) I/R+saline vehicle treatment; (3) I/R+SS-20 treatment; (4) I/R+SS-31 treatment. Each experimental group consisted of 8 rats. SS-20 and SS-31 (3 mg/kg, dissolved in saline) were administered to rats 30 min before ischemia and immediately before onset of reperfusion. The control rats were given saline alone on the same schedule.\nRats were anesthetized with a mixture of ketamine (90 mg/kg, i.p.) and xylazine (4 mg/kg, i.p.). The left renal vascular pedicle was occluded temporarily using a micro-clamp for 30 or 45 min. At the end of the ischemic period, reperfusion was established by removing of the clamp. At that time, the contralateral right kidney was removed. After 24 h reperfusion, animals were sacrificed and blood samples were obtained by cardiac puncture. Renal function was determined by blood urea nitrogen (BUN) and serum creatinine (BioAssay Systems DIUR-500 and DICT-500).\nRenal Morphologic Examination: Kidneys were fixed in 10% neutral-buffered formalin and embedded in paraffin wax. Three micron sections were stained with hematoxylin-eosin (H&E) and periodic acid-Schiff (PAS) and analyzed by light microscopy. Lesions were scored using the following criteria: [1] mitosis and necrosis of individual cells; [2] necrosis of all cells in adjacent proximal convoluted tubules with survival of surrounding tubules; [3] necrosis confined to the distal third of the proximal convoluted tubule with a band of necrosis extending across the inner cortex; and [4] necrosis affecting all three segments of the proximal convoluted tubule."}, "[2]": {"system": "radiocontrast dye-induced renal failure", "assay": "CIN, indomethacin/L-NAME/iothalamate model, Experiment 1", "procedure": "Animal Model: A model of radiocontrast dye-induced renal failure as described by Agmon et al. J Clin Invest 94:1069-1075 (1994) in this Example. As in humans, radiocontrast dye is generally non-toxic when administered to animals with normal renal function. However, radiocontrast dye can induce ARI in animals with impaired renal function. In this model, impaired renal function was induced by the administration of indomethacin (10 mg/kg) and L-NAME (10 mg/kg). The animals were divided into 3 groups: • 1. Group (1) control (n=8) • 2. Group (2) Indomethcin/L-NAME (given 15 min apart) followed by iothalamate (AngioConray 6 ml/kg) (n=7) • 3. Group (3) SS-31 (3 mg/kg, ip) was given 15 min prior to administration of indomethacin/L-NAME/iothalamate, and a second dose of SS-31 (3 mg/kg) was repeated immediately after drug exposure (n=9)\nExperimental Protocol: Rats were kept in metabolic cages (Nalge Co., Rochester, N.Y.) with free access to tap water and standard rat chow. After a baseline 24-h urinary collection, the rats were anesthetized with a mixture of ketamine (90 mg/kg, i.p.) and xylazine (4 mg/kg, i.p.). The left femoral vein and artery were cannulated and a baseline blood sample drawn (1 ml) for measurement of creatinine level. The animals then received the various drug treatments as indicated above. Iothalamate Meglumine 60% (contrast dye; AngioConray 6 ml/kg) was then injected through the arterial cannula. The left femoral artery was then ligated and the cannula removed. Rats were then returned to the metabolic cages for another 24-h urine collection. […]\nRenal Function: Renal function was assessed by determining GFR at baseline and 24 h following dye administration. […] Creatinine clearance was analyzed by measuring plasma (Pcr), urinary creatinine (Ucr) levels (Bioassay Systems; DICT-500) and urine volume.\n(§1) Renal Histology: Kidneys were fixed in 10% neutral-buffered formalin and embedded in paraffin wax. Three micron sections were stained with hematoxylin-eosin (H&E) and periodic acid-Schiff (PAS) and analyzed by light microscopy by a board certified pathologist."}, "[3]": {"system": "radiocontrast dye-induced renal failure", "assay": "CIN, indomethacin/L-NAME model, Experiment 2", "procedure": "Animal model: The same indomethacin and L-NAME model described above was used in this experiment. In this model, impaired renal function was induced by the administration of indomethacin (8 mg/kg) and L-NAME (10 mg/kg).\nRenal function: Renal function was assessed by determining serum and urinary creatinine using DICT-kit from Bioassays Systems (Hayward, Calif.) at baseline and 26 h following dye administration. Urinary protein concentration was also determined at baseline and 26 h following dye administration by BCA Protein Assay kit (Thermo Scientific, Rockford, Ill.). Samples were analyzed by students t-test and differences were considered significant at p<0.05.\nas §1"}, "[4]": {"system": "CIN in glycerol-induced rhabdomyolysis animal model", "assay": "CIN in glycerol-induced rhabdomyolysis model, Experiment 3", "procedure": "SD rats with body weight of 300-400 grams were dehydrated for 24 h followed by i.m. injection with 25% glycerol solution (v/v) at the dose of 10 ml/kg. Twenty-four hours (24 h) later, the rats were grouped and subjected to contrast induced nephropathy study protocol. Eighteen SD rats with body weight of 350-400 g were randomized into three groups with the doses, dosing schedules and study protocol presented in FIG. 27. The effects of SS-31 on ARI can be examined by comparing the renal functions in animals from group A with that from group B.\nRenal function: Renal function was assessed by determining serum and urinary creatinine using Jiancheng Cr kit (Nanjing, P.R.C) at baseline, 24 h after dehydration and 48 h post the contrast dye administration. The creatinine clearance was calculated based on the Scr, Ucr and Urinary volume. Urinary protein concentration was determined by Bradford Protein Assay kit (Sigma, U.S.A.). Samples were analyzed by students t-test and differences were considered significant at p<0.05."}, "[5]": {"details": "26 h post contrast dye vs baseline"}}}
{"substance": "D-Arg-2′6′Dmt-Lys-Phe-NH2 [SS-31]", "values": [{"measurement": "histopathological score", "setting": "[1]", "result": "significantly improved histopathological score"}, {"measurement": "tubular cell injury (H&E, PAS)", "setting": "[1]", "result": "protected brush border and prevented necrosis in the proximal tubules"}, {"measurement": "rats almost completely protected from the effects of the dye", "setting": "[2]; 3 mg/kg ip before and after drug exposure", "result": "Six of nine"}, {"measurement": "PAS staining of kidney", "setting": "[2]; dye-injected", "result": "intact brush borders and normal glomeruli"}, {"measurement": "apoptotic cells/hpf (TUNEL)", "setting": "[2]; dye-injected", "result": "greatly attenuated"}, {"measurement": "SCr", "setting": "[3]; 1 day (26 h post dye)", "result": "0.73 ± 0.04", "unit": "mg/dL"}, {"measurement": "U protein BCA", "setting": "[3]; 1 day (26 h post dye)", "result": "11.76 ± 2.71", "unit": "mg/mL"}, {"measurement": "Ucr", "setting": "[3]; 1 day (26 h post dye)", "result": "38.12 ± 8.19", "unit": "mg/dL"}, {"measurement": "Scr increase", "setting": "[3]; [5]", "result": 9, "unit": "%"}, {"measurement": "urinary protein concentration increase", "setting": "[3]; [5]", "result": 1.7, "unit": "fold"}, {"measurement": "rats protected from contrast dye induced nephropathy (Scr increase less than 25% at 26 h post dye)", "setting": "[3]; 26 h post dye", "result": "Five out of seven"}, {"measurement": "SCr", "setting": "[3]; Baseline", "result": "0.67 ± 0.09", "unit": "mg/dL"}, {"measurement": "U protein BCA", "setting": "[3]; Baseline", "result": "4.28 ± 1.15", "unit": "mg/mL"}, {"measurement": "Ucr", "setting": "[3]; Baseline", "result": "15.54 ± 3.87", "unit": "mg/dL"}, {"measurement": "PAS staining of kidney", "setting": "[3]; dye-injected", "result": "intact brush borders and normal glomeruli"}, {"measurement": "PAS staining of kidney", "setting": "[4]; glycerin, dye", "result": "intact brush borders, normal glomeruli and minimum protein cast in the tubular cells"}, {"measurement": "urine protein level over time", "setting": "[4]; vs vehicle group", "result": "recovered faster than the vehicle group"}]}
